Common to all, as to assay: Large panel kinase profiling
Assay type in all cases: biochemical
Conditions in all cases: 1 μM test article, 1 mM ATP

The target in test [1] is CAMK1D (Homo sapiens, UniProt Q8IU85). Put shortly: (§1)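 Kinase activity was followed with the PhosphoSens CSox-Sensor platform, testing compound at 1 μM in the presence of 1 mM ATP. Reactions ran at 30° C. and fluorescence (Ex 360 nm/Em 485 nm) was read kinetically every 1 min.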
Test [2] concerns the target T1, FRK (Homo sapiens, UniProt P42685).
T1 construct: AssayQuant Technologies, Inc. (service provider)
Put shortly: as §1

For test [3], the target named is T2, MAP4K2/GCK (Homo sapiens, UniProt Q12851).
T2 construct: AssayQuant Technologies, Inc. (service provider)
T2 sequence (Q12851 1-820): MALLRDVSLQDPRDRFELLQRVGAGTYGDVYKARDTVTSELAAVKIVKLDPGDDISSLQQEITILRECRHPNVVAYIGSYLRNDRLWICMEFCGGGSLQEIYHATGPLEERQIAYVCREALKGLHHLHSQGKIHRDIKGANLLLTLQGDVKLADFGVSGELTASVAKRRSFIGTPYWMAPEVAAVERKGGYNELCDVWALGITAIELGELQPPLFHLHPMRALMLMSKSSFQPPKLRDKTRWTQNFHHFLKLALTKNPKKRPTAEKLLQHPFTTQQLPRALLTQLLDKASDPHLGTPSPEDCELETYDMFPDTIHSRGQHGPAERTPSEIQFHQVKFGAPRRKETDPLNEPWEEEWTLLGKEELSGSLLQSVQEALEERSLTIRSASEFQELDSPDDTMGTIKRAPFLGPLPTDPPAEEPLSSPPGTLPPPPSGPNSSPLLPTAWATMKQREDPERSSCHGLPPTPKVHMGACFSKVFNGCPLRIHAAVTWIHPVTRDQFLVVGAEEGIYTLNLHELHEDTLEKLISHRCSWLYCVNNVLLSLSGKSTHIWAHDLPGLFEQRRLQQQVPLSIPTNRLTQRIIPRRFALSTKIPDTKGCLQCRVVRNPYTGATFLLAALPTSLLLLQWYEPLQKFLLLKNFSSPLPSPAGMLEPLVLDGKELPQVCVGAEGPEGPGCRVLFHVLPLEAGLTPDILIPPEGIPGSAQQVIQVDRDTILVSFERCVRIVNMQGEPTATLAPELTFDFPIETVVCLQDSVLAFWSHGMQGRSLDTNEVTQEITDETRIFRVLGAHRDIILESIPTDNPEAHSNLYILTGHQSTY
Put shortly:
as §1

For test [4], the target named is T3, FLT4 (Homo sapiens, UniProt P35916).
T3 construct: AssayQuant Technologies, Inc. (service provider)
Put shortly:
as §1

Test [5] concerns the target T4, IGF1R (Homo sapiens, UniProt P08069).
T4 construct: AssayQuant Technologies, Inc. (service provider)
Put shortly: as §1

Test [6] has as its target T5, BTK (Homo sapiens, UniProt Q06187).
T5 construct: purchased Cama
Put shortly: as §1

The target of test [7] is KDR (Homo sapiens, UniProt P35968). Put shortly: as §1
In test [8] the target is T6, FLT3 (Homo sapiens, UniProt P36888).
T6 construct: AssayQuant Technologies, Inc. (service provider)
T6 sequence (P36888 27-993): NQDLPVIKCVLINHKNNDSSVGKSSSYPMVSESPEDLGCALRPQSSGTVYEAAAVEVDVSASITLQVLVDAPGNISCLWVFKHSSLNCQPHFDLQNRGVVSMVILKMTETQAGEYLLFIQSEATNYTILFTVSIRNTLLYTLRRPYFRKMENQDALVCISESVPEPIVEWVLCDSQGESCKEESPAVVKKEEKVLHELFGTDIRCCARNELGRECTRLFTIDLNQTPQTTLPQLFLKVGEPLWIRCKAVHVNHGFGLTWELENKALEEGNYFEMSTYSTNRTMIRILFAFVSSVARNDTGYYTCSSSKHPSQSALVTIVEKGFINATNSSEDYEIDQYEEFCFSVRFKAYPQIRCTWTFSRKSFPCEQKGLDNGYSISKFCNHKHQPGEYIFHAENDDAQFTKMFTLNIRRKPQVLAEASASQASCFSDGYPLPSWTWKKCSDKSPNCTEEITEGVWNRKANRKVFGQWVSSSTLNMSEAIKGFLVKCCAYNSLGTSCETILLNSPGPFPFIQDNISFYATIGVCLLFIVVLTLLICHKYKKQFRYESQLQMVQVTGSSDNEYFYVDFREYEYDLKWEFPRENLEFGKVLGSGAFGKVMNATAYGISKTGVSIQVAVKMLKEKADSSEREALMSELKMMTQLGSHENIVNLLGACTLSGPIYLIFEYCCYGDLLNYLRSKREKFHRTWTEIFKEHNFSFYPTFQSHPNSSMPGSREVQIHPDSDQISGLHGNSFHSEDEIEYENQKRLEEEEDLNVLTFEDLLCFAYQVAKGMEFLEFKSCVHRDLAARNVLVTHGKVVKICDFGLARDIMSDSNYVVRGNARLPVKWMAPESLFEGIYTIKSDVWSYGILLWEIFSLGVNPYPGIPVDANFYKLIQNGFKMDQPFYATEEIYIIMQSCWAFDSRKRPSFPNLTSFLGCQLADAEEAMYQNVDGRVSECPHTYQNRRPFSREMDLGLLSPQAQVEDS
Put shortly: as §1

Test [9] has as its target MAP3K14 (Homo sapiens, UniProt Q99558). Put shortly:
as §1

Test [10] concerns the target PRKCB2/PKCB2 (Homo sapiens, UniProt P05771). Put shortly: as §1
Test [11] deals with T7, CSNK1E/CK1E (Homo sapiens, UniProt P49674).
T7 construct: AssayQuant Technologies, Inc. (service laboratory)
Put shortly: as §1

For test [12], the target named is PAK3 (Homo sapiens, UniProt O75914). Put shortly: as §1

Molecules are shown by their SMILES.

KDR, sequence (P35968 20-1356, species assumed): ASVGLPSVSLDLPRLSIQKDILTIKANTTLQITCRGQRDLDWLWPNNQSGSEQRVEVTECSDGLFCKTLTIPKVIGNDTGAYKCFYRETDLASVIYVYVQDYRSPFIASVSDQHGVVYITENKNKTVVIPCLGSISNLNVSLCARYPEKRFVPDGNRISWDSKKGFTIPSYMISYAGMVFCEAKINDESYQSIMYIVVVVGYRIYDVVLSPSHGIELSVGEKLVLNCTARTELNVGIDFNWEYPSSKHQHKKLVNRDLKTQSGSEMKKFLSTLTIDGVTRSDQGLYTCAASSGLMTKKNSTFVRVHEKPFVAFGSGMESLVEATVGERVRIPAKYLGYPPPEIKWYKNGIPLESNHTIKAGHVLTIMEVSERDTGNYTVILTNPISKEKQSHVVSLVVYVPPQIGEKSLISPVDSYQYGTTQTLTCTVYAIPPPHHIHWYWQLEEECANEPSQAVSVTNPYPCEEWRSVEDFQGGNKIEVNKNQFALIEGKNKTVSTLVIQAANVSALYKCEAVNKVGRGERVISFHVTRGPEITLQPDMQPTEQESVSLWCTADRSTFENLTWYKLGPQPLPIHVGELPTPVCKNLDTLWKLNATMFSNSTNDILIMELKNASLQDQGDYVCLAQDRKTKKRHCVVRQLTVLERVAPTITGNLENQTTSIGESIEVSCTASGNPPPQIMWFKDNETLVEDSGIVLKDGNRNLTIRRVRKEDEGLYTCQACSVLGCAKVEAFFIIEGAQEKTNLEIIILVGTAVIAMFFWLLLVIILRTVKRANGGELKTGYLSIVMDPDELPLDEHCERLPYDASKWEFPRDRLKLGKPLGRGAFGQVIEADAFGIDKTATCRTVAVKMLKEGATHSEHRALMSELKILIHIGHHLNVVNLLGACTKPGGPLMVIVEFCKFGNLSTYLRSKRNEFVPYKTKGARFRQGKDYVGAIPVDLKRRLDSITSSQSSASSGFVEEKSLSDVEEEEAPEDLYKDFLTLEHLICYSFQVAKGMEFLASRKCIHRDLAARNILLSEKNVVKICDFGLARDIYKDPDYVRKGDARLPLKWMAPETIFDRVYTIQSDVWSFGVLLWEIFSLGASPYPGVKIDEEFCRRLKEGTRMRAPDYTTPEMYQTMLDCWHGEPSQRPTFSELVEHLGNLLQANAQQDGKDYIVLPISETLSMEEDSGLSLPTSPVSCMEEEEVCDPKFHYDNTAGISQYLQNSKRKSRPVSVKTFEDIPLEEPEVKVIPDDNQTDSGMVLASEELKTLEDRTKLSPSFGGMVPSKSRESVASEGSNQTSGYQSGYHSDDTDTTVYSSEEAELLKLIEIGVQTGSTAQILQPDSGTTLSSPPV
T7 sequence (P49674 whole entry): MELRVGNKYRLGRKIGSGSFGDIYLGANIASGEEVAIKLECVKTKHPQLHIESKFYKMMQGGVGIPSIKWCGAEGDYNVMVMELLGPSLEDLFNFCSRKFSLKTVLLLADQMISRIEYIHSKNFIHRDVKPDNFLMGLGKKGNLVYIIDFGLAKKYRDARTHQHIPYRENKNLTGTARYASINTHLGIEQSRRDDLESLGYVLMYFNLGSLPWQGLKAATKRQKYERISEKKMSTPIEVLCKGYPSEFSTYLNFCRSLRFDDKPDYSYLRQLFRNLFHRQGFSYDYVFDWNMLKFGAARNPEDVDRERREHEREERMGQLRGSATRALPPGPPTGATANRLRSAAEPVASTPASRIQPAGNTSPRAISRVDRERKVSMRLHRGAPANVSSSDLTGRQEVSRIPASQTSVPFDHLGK
T5 sequence (Q06187 whole entry): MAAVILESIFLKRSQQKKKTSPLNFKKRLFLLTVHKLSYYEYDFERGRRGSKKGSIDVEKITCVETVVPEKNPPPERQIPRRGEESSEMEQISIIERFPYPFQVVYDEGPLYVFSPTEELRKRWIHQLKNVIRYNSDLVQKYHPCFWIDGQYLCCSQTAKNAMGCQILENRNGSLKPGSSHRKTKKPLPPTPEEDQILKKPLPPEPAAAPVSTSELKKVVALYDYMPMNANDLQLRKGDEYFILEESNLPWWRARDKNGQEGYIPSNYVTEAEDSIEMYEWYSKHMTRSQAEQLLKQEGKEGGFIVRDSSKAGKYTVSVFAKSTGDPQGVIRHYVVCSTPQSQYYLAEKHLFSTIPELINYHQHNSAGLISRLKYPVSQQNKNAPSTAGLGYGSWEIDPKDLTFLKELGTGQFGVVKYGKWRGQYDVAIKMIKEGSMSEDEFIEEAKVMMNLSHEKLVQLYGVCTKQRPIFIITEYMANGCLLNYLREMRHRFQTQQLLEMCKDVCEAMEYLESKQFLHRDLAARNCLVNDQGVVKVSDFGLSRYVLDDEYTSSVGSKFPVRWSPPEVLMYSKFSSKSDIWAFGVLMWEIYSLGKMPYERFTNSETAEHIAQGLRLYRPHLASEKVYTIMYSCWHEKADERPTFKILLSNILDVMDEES
PRKCB2/PKCB2, sequence (P05771 1-673 isoform P05771-2): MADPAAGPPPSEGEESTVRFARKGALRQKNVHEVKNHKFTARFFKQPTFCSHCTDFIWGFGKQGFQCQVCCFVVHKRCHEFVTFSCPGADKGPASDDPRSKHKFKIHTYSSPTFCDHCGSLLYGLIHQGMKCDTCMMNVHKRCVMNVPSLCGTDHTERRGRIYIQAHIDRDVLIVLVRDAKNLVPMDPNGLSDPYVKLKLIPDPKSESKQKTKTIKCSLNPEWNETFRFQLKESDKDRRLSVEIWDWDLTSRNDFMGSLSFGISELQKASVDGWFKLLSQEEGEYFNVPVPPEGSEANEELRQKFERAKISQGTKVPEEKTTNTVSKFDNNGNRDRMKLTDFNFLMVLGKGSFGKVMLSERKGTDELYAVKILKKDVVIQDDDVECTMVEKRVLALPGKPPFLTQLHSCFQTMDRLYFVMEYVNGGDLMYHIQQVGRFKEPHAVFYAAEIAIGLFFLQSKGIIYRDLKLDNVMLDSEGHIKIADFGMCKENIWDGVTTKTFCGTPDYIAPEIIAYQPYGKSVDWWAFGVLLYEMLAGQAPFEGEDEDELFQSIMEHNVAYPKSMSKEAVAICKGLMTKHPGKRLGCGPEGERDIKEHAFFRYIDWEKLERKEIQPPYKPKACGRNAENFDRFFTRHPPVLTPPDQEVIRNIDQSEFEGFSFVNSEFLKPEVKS
PAK3, sequence (O75914 whole entry, species assumed): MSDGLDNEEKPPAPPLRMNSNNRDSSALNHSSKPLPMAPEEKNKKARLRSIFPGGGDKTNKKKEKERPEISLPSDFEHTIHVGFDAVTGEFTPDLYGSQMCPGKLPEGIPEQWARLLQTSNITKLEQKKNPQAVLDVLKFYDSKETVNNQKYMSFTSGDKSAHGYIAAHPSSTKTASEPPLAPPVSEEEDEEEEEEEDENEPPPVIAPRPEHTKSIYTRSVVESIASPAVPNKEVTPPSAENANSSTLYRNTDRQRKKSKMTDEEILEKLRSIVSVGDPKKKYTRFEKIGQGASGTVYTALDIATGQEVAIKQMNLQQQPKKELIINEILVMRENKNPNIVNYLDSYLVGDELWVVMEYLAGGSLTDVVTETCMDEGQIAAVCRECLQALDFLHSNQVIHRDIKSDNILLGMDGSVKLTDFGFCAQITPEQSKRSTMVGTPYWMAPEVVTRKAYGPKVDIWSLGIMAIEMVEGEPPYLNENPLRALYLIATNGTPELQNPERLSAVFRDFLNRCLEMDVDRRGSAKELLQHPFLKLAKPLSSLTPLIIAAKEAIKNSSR
T4 sequence (P08069 31-1367, species assumed): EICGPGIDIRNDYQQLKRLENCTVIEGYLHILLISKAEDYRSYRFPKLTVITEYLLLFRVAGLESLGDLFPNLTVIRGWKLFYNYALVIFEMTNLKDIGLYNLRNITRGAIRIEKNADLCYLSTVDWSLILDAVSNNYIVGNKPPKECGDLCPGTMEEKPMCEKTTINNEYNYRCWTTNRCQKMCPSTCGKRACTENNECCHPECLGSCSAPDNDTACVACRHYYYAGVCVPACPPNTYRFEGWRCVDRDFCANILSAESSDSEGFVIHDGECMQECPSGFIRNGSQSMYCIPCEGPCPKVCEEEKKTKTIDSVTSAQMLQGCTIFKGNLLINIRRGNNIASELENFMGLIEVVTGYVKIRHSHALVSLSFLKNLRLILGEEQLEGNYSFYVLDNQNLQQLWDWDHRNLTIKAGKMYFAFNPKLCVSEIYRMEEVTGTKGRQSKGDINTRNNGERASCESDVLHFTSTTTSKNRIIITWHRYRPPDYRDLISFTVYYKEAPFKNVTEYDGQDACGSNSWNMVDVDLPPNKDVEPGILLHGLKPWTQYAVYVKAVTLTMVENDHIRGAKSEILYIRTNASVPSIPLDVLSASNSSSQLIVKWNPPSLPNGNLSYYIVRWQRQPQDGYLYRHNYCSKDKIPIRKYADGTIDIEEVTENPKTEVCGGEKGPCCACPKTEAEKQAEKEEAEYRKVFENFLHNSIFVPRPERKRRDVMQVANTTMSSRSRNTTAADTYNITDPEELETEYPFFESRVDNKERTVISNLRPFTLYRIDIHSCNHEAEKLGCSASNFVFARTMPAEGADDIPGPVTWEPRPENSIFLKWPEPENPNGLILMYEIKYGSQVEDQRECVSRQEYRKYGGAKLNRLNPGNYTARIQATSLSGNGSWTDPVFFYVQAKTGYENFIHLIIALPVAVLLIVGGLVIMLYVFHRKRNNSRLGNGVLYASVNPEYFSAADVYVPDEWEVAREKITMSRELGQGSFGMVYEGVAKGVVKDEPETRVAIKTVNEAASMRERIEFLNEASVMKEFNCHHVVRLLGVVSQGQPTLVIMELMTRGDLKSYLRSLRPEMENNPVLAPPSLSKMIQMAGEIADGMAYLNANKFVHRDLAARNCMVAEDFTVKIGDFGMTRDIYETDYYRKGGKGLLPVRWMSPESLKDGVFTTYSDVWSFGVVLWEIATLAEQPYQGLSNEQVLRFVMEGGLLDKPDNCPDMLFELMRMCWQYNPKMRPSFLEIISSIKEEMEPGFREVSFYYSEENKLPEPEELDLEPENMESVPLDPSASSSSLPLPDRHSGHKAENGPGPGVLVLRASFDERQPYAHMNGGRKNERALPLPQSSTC

As usually defined, the inhibition is the drop in the measured response relative to a control, in per cent. Take `C=CC(=O)N1CCC[C@@H](c2c(F)cc(C(N)=O)c3[nH]c4c(c23)CCC4)C1` [Compound 10-2, (S)-8-(1-acryloylpiperidin-3-yl)-7-fluoro-1,2,3,4-tetrahydrocyclo-penta[b]indole-5-carboxamide]: the inhibition at 1 µM is 10.5% in test [1]; -4.1% in [2]; -1.3% in test [3]; 1.8% in [4]; -26.1% in test [5]; 93.8% in test [6]. The inhibition at 1 µM in test [7] was 32.7%; in test [8] it was -4.6%; in [9], -0.2%; in test [10], -28.2%; in test [11] it was 15.1%; in [12] it was 21.7%.

For the compound `C=CC(=O)N1CCCC(c2c(F)cc(C(N)=O)c3[nH]c4c(c23)CCCCC4)C1` (single isomer, unassigned) [Compound 5-6], the inhibition at 1 µM in [1] was 19.6%; in [2], 4.2%; in [3], -46.6%; in test [4], 19.7%; in test [5], -16.7%; in [6], 92.8%. The inhibition at 1 µM is 10.3% in [7]; 2.2% in test [8]; 10.5% in test [9]; -32.3% in test [10]; -4.2% in test [11]; 5.4% in [12].

Turning to `C=CC(=O)N1CCC[C@@H](c2c(F)cc(C(N)=O)c3[nH]c4c(c23)CC2(CC4)CC2)C1` [Compound 6-2, (S)-5-(1-acryloylpiperidin-3-yl)-6-fluoro-1,2,4,9-tetrahydrospiro[carbazole-3,1′-cyclopropane]-8-carboxamide], the inhibition at 1 µM in test [1] was 26.1%; in test [2], -2.8%; in test [3], -1.3%; in [4], 20.4%; in [5], -11.6%; in test [6], 97.4%. In addition, the inhibition at 1 µM in [7] is 31.6%; in test [8], -9.4%; in test [9], -11.5%; in test [10], -9.4%; in test [11] it was -7.4%; in test [12], 10.2%.

The values are drawn from patent US20220009920A1 (GB005, Inc., priority 2020, published 2022).
